Laboratory results as given in patent EP0026746A1, “Combinatory compositions for use in a method for enhancing the activity of antibiotics, antibiotic preparations having enhanced activity and process for their production” (CIBA-GEIGY AG, priority 1979, dated 1981).

Key:
Assay in all cases: Mouse protection test, i.p. infection, survival ED50
Type in all cases: in vivo
[1] = test system: Klebsiella pneumoniae 327; settings: Klebsiella pneumoniae, 327, sc, mice, 60 x 10^4 cfu i.p., s.c. immediately and 3 h after infection, survivors
Excerpt: (§1) Die hohe antibiotische Wirkung des neuen Verfahrens und der neuen Präparate kann durch "in vivo"-Versuche nachgewiesen werden, die an verschiedenen Tierarten, insbesondere an Säugetieren, wie Mäusen, durchgeführt werden. Dazu infiziert man sie mit einer letalen oder sub-letalen Dosis eines pathogenen Microorganismus und gibt dann das genannte neue Präparat bzw. die einzelnen Dosen an Muramylpeptid und Antibiotikum. Die Wirkung wird als ED bestimmt, das ist diejenige Dosis bei denen […] der Tiere überleben.
(§2) Beispiel 4: Man infiziert weisse Laboratoriums-Mäuse auf i.p. Wege mit den in der nachfolgenden Tabelle angeführten pathogenen Mikroorganismen in Salzlösung, so dass 90-100% der nicht behandelten Kontrolltiere innerhalb von 48 Stunden getötet werden. Unmittelbar, sowie 3 Stunden nach der Infektion werden Gruppen zu je 10 Mäusen mit Cefroxadin, sowohl allein (ohne MDP oder nMDP) als auch in Kombination mit N-Acetyl-muramyl-L-alanyl-D-isoglutamin (MDP) bzw. mit N-Acetyldesmethylmuramyl-L-alanyl-D-isoglutamin (nMDP) behandelt, wobei dieselben zweimal in Form wässriger Lösungen oder Suspensionen auf subkutanem Weg verabreicht wurden. Nach 4 bzw. […] Die meisten dieser Versuche wurden zweifach ausgeführt und die Mittelwerte ermittelt.

Pasteurella multocida = settings: sc, mice, 0.1 x 10^4 cfu i.p., s.c. immediately and 3 h after infection, survivors
Excerpt: as §1, §2

[2] = test system: Streptococcus pyogenes 38; settings: Streptococcus pyogenes, 38, sc, 96 h, mice, 0.6 x 10^4 cfu i.p., s.c. immediately and 3 h after infection, survivors after 4 days
Excerpt: as §1, §2

[3] = test system: Klebsiella pneumoniae 329; settings: Klebsiella pneumoniae, 329, sc, 96 h, mice, 2 x 10^4 cfu i.p., s.c. immediately and 3 h after infection, survivors after 4 days
Excerpt: as §1, §2

[4] = test system: Staphylococcus aureus 2999; settings: Staphylococcus aureus, 2999, sc, 96 h, mice, 20 000 x 10^4 cfu i.p., s.c. immediately and 3 h after infection, survivors after 4 days
Excerpt: as §1, §2

[5] = test system: Salmonella typhimurium 277; settings: Salmonella enterica, sc, 240 h, mice, 40 x 10^4 cfu i.p., s.c. immediately and 3 h after infection, results after 10 days
Excerpt: as §1
(§3) Beispiel 4: Man infiziert weisse Laboratoriums-Mäuse auf i.p. Wege mit den in der nachfolgenden Tabelle angeführten pathogenen Mikroorganismen in Salzlösung, so dass 90-100% der nicht behandelten Kontrolltiere innerhalb von 48 Stunden getötet werden. Unmittelbar, sowie 3 Stunden nach der Infektion werden Gruppen zu je 10 Mäusen mit Cefroxadin, sowohl allein (ohne MDP oder nMDP) als auch in Kombination mit N-Acetyl-muramyl-L-alanyl-D-isoglutamin (MDP) bzw. mit N-Acetyldesmethylmuramyl-L-alanyl-D-isoglutamin (nMDP) behandelt, wobei dieselben zweimal in Form wässriger Lösungen oder Suspensionen auf subkutanem Weg verabreicht wurden. Nach 4 bzw. 10 Tagen nach erfolgter Infektion wurden die überlebenden Tiere gezählt. Die meisten dieser Versuche wurden zweifach ausgeführt und die Mittelwerte ermittelt.

[6] = test system: Salmonella typhimurium 273; settings: Salmonella enterica, sc, 240 h, mice, 400 x 10^4 cfu i.p., s.c. immediately and 3 h after infection, results after 10 days
Excerpt: as §1, §3

**Q.** With `COC1=C(C(=O)O)N2C(=O)[C@@H](NC(=O)[C@H](N)C3=CCC=CC3)[C@H]2SC1` [Cefroxadin, 7ß-[D-2-amino-2-(1,4-cyclohexadienyl)-acetamido]-3-methoxy-3-cephem-4-carbonsäure] as the compound, how does the ED50 ([1]; mit 10 mg/kg MDP) read?
**A.** < 50 mg/kg

**Q.** What about the ED50 ([1]; mit 10 mg/kg nMDP) of the same compound?
**A.** < 50 mg/kg

**Q.** What about the ED50 ([1]; ohne MDP oder nMDP) of the same compound?
**A.** 75 mg/kg

**Q.** What about the ED50 (Pasteurella multocida; mit 10 mg/kg MDP) of the same compound?
**A.** 37 mg/kg

**Q.** And the ED50 (Pasteurella multocida; mit 10 mg/kg nMDP)?
**A.** 70 mg/kg

**Q.** What about the ED50 (Pasteurella multocida; ohne MDP oder nMDP) of the same compound?
**A.** 109 mg/kg

**Q.** And the ED50 ([2]; mit 10 mg/kg MDP)?
**A.** 0.18 mg/kg

**Q.** And the ED50 ([2]; mit 10 mg/kg nMDP)?
**A.** 0.17 mg/kg

**Q.** And the ED50 ([2]; ohne MDP oder nMDP)?
**A.** 0.21 mg/kg

**Q.** And the ED50 ([3]; mit 10 mg/kg MDP)?
**A.** 4.5 mg/kg

**Q.** What about the ED50 ([3]; mit 10 mg/kg nMDP) of the same compound?
**A.** < 2.5 mg/kg

**Q.** And the ED50 ([3]; ohne MDP oder nMDP)?
**A.** 14.2 mg/kg

**Q.** And the ED50 ([4]; mit 10 mg/kg MDP)?
**A.** 45 mg/kg

**Q.** And the ED50 ([4]; mit 10 mg/kg nMDP)?
**A.** 35 mg/kg

**Q.** And the ED50 ([4]; ohne MDP oder nMDP)?
**A.** 58 mg/kg

**Q.** And the ED50 ([5]; mit 10 mg/kg MDP)?
**A.** 7.6 mg/kg

**Q.** What about the ED50 ([5]; mit 10 mg/kg nMDP) of the same compound?
**A.** 11 mg/kg

**Q.** And the ED50 ([5]; ohne MDP oder nMDP)?
**A.** 22.5 mg/kg

**Q.** And the ED50 ([6]; mit 10 mg/kg MDP)?
**A.** 22.5 mg/kg

**Q.** And the ED50 ([6]; mit 10 mg/kg nMDP)?
**A.** 14 mg/kg

**Q.** What about the ED50 ([6]; ohne MDP oder nMDP) of the same compound?
**A.** 39 mg/kg
